Data from patent US8729089B2 (Gilead Sciences, Inc., priority 2006, dated 2014).

Legend:
[1] = CC50 assay (CellTiter-Glo) in Huh-7 HCV replicon cells; type: cell-based, human; conditions: human, 3 days incubation, CellTiter-Glo readout
In short: (§1)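 Cytotoxicity (CC50) measured by CellTiter-Glo and antiviral activity (EC50) by luciferase signal from lysed cells, both by luminescence. Replicon-bearing Huh-7 cells, 6000 per well, incubated 3 days at 37 °C with threefold-diluted compound (0.5% DMSO for DMSO-dissolved compounds).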

[2] = tested on: HCV replicon in human hepatoma Huh-7 cell line; assay: Anti-HCV replicon assay (EC50, luciferase); type: cell-based; conditions: Hepatitis C virus, Huh-7, 72 h
In short: as §1

Structure (SMILES): N#Cc1ccc(-c2ccc3nc(NCc4ccc(S(N)(=O)=O)cc4)nc(NCC(F)(F)F)c3n2)cc1 [Example 212, 4-{[6-(4-Cyano-phenyl)-4-(2,2,2-trifluoro-ethylamino)-pyrido[3,2-d]pyrimidin-2-ylamino]-methyl}-benzenesulfonamide]
- CC50 at 3 days [1]: 5 to 25 µM
- EC50 [2]: < 0.1 µM

Structure (SMILES): NS(=O)(=O)c1ccc(CNc2nc(NCC(F)(F)F)c3nc(-c4ccc(F)c(S(=O)(=O)N[C@@H]5CCNC5)c4)ccc3n2)cc1 [Example 213, 2-Fluoro-N-pyrrolidin-3-yl-5-[2-(4-sulfamoyl-benzylamino)-4-(2,2,2-trifluoro-ethylamino)-pyrido[3,2-d]pyrimidin-6-yl]-benzenesulfonamide]
- CC50 at 3 days [1]: < 5 µM
- EC50 [2]: < 0.1 µM

Structure (SMILES): NS(=O)(=O)c1ccc(CNc2nc(NCC(F)(F)F)c3nc(-c4ccc(F)c(S(=O)(=O)NC5CCNCC5)c4)ccc3n2)cc1 [Example 214, 2-Fluoro-N-piperidin-4-yl-5-[2-(4-sulfamoyl-benzylamino)-4-(2,2,2-trifluoro-ethylamino)-pyrido[3,2-d]pyrimidin-6-yl]-benzenesulfonamide]
- CC50 at 3 days [1]: 5 to 25 µM
- EC50 [2]: < 0.1 µM

Structure (SMILES): CC(C)(C)OC(=O)N1CCC(NS(=O)(=O)c2cc(-c3ccc4nc(NCc5ccc(S(N)(=O)=O)cc5)nc(NCC(F)(F)F)c4n3)ccc2F)CC1 [Example 215, 4-{2-Fluoro-5-[2-(4-sulfamoyl-benzylamino)-4-(2,2,2-trifluoro-ethylamino)-pyrido[3,2-d]pyrimidin-6-yl]-benzenesulfonylamino}-piperidine-1-carboxylic acid tert-butyl ester]
- CC50 at 3 days [1]: 5 to 25 µM
- EC50 [2]: < 0.1 µM

Structure (SMILES): C[C@H](N)C(=O)Nc1ccc(-c2ccc3nc(NCc4ccc(S(N)(=O)=O)cc4)nc(NCC(F)(F)F)c3n2)cc1F [Example 216, 2-Amino-N-{2-fluoro-4-[2-(4-sulfamoyl-benzylamino)-4-(2,2,2-trifluoro-ethylamino)-pyrido[3,2-d]pyrimidin-6-yl]-phenyl}-propionamide]
- CC50 at 3 days [1]: < 5 µM
- EC50 [2]: < 0.1 µM

Structure (SMILES): NS(=O)(=O)c1ccc(CNc2nc(NCC(F)(F)F)c3nc(-c4ccc(F)c(S(=O)(=O)N5CCNCC5)c4)ccc3n2)cc1 [Example 217, 4-{[6-[4-Fluoro-3-(piperazine-1-sulfonyl)-phenyl]-4-(2,2,2-trifluoro-ethylamino)-pyrido[3,2-d]pyrimidin-2-ylamino]-methyl}-benzenesulfonamide]
- CC50 at 3 days [1]: < 5 µM
- EC50 [2]: < 0.1 µM

Structure (SMILES): CC(C)(C)OC(=O)N1CCN(S(=O)(=O)c2cc(-c3ccc4nc(NCc5ccc(S(N)(=O)=O)cc5)nc(NCC(F)(F)F)c4n3)ccc2F)CC1 [Example 218, 4-{2-Fluoro-5-[2-(4-sulfamoyl-benzylamino)-4-(2,2,2-trifluoro-ethylamino)-pyrido[3,2-d]pyrimidin-6-yl]-benzenesulfonyl}-piperazine-1-carboxylic acid tert-butyl ester]
- CC50 at 3 days [1]: 5 to 25 µM
- EC50 [2]: < 0.1 µM

Structure (SMILES): NS(=O)(=O)c1ccc(CNc2nc(NCC(F)(F)F)c3nc(-c4ccc(NC(=O)[C@H]5CCNC5)c(F)c4)ccc3n2)cc1 [Example 219, Pyrrolidine-3-carboxylic acid {2-fluoro-4-[2-(4-sulfamoyl-benzylamino)-4-(2,2,2-trifluoro-ethylamino)-pyrido[3,2-d]pyrimidin-6-yl]-phenyl}-amide]
- CC50 at 3 days [1]: < 5 µM
- EC50 [2]: < 0.1 µM

Structure (SMILES): C[C@@H](O)C(=O)Nc1ccc(-c2ccc3nc(NCc4ccc(S(N)(=O)=O)cc4)nc(NCC(F)(F)F)c3n2)cc1 [Example 220, 2-Hydroxy-N-{4-[2-(4-sulfamoyl-benzylamino)-4-(2,2,2-trifluoro-ethylamino)-pyrido[3,2-d]pyrimidin-6-yl]-phenyl}-propionamide]
- CC50 at 3 days [1]: 5 to 25 µM
- EC50 [2]: < 0.1 µM

Structure (SMILES): C[C@H](N)C(=O)Nc1ccc(-c2ccc3nc(NCc4ccc(S(N)(=O)=O)cc4)nc(NCC(F)(F)F)c3n2)cc1 [Example 221, 2-Amino-N-{4-[2-(4-sulfamoyl-benzylamino)-4-(2,2,2-trifluoro-ethylamino)-pyrido[3,2-d]pyrimidin-6-yl]-phenyl}-propionamide]
- CC50 at 3 days [1]: > 25 µM
- EC50 [2]: < 0.1 µM

Structure (SMILES): NS(=O)(=O)c1ccc(CNc2nc(NCC(F)(F)F)c3nc(-c4ccc(NC(=O)[C@H]5CCNC5)cc4)ccc3n2)cc1 [Example 222, Pyrrolidine-3-carboxylic acid {4-[2-(4-sulfamoyl-benzylamino)-4-(2,2,2-trifluoro-ethylamino)-pyrido[3,2-d]pyrimidin-6-yl]-phenyl}-amide]
- CC50 at 3 days [1]: 5 to 25 µM
- EC50 [2]: < 0.1 µM

Structure (SMILES): NS(=O)(=O)c1ccc(CNc2nc(NCC(F)(F)F)c3nc(-c4ccc(NC(=O)OCCN5CCCC5)cc4)ccc3n2)cc1 [Example 223, {4-[2-(4-Sulfamoyl-benzylamino)-4-(2,2,2-trifluoro-ethylamino)-pyrido[3,2-d]pyrimidin-6-yl]-phenyl}-carbamic acid 2-pyrrolidin-1-yl-ethyl ester]
- CC50 at 3 days [1]: 5 to 25 µM
- EC50 [2]: < 0.1 µM

Structure (SMILES): NS(=O)(=O)c1cc(-c2ccc3nc(NCc4ccc(F)cc4)nc(NCC(F)(F)F)c3n2)ccc1F [Example 224, 2-Fluoro-5-[2-(4-fluoro-benzylamino)-4-(2,2,2-trifluoro-ethylamino)-pyrido[3,2-d]pyrimidin-6-yl]-benzenesulfonamide]
- CC50 at 3 days [1]: > 25 µM
- EC50 [2]: < 0.1 µM

Structure (SMILES): NS(=O)(=O)c1ccc(CNc2nc(NCC(F)(F)F)c3nc(-c4ccc(F)c(S(N)(=O)=O)c4)ccc3n2)cc1 [Example 225, 2-Fluoro-5-[2-(4-sulfamoyl-benzylamino)-4-(2,2,2-trifluoro-ethylamino)-pyrido[3,2-d]pyrimidin-6-yl]-benzenesulfonamide]
- CC50 at 3 days [1]: > 25 µM
- EC50 [2]: < 0.1 µM

Structure (SMILES): CCOc1nc(NCc2ccc(S(N)(=O)=O)cc2)nc2ccc(-c3ccc(NC(=O)[C@@H](N)[C@H](C)O)cc3)nc12 [Example 226, 2-Amino-N-{4-[4-ethoxy-2-(4-sulfamoyl-benzylamino)-pyrido[3,2-d]pyrimidin-6-yl]-phenyl}-3-hydroxy-butyramide]
- CC50 at 3 days [1]: > 25 µM
- EC50 [2]: < 0.1 µM

Structure (SMILES): CCOc1nc(NCc2ccc(S(N)(=O)=O)cc2)nc2ccc(-c3ccc(N4CC(O)CC4=O)cc3)nc12 (centres unmarked) [Example 227, 4-({4-Ethoxy-6-[4-(4-hydroxy-2-oxo-pyrrolidin-1-yl)-phenyl]-pyrido[3,2-d]pyrimidin-2-ylamino}-methyl)-benzenesulfonamide]
- CC50 at 3 days [1]: > 25 µM
- EC50 [2]: < 0.1 µM

Structure (SMILES): NS(=O)(=O)c1ccc(CNc2nc(Nc3ccc(-n4cncn4)cc3)c3nc(-c4ccc(F)cc4)ccc3n2)cc1 [Example 228, 4-{[6-(4-Fluoro-phenyl)-4-(4-[1,2,4]triazol-1-yl-phenylamino)-pyrido[3,2-d]pyrimidin-2-ylamino]-methyl}-benzenesulfonamide]
- CC50 at 3 days [1]: < 5 µM
- EC50 [2]: < 0.1 µM

Structure (SMILES): NS(=O)(=O)c1ccc(CNc2nc(Nc3cccc(F)c3)c3nc(-c4ccc(F)cc4)ccc3n2)cc1 [Example 229, 4-{[6-(4-Fluoro-phenyl)-4-(3-fluoro-phenylamino)-pyrido[3,2-d]pyrimidin-2-ylamino]-methyl}-benzenesulfonamide]
- CC50 at 3 days [1]: < 5 µM
- EC50 [2]: < 0.1 µM

Structure (SMILES): CS(=O)(=O)Nc1cc(-c2ccc3nc(NCc4ccc(S(N)(=O)=O)cc4)nc(NCC(F)(F)F)c3n2)ccc1F [Example 230, 4-{[6-(4-Fluoro-3-methanesulfonylamino-phenyl)-4-(2,2,2-trifluoro-ethylamino)-pyrido[3,2-d]pyrimidin-2-ylamino]-methyl}-benzenesulfonamide]
- CC50 at 3 days [1]: 5 to 25 µM
- EC50 [2]: < 0.1 µM
